Here are results for 25 compounds from patent US10577363B2, “Substituted piperidine compounds” (EPIZYME, INC., priority 2014, dated 2020).

Structures are written as SMILES.

Test [1] addresses T1, SMYD3 (Homo sapiens (Human), UniProt Q9H7B4). Put plainly: SMYD3 biochemical assay (SPA, 3H-SAM methylation of MEKK2 protein substrate). Particulars: average of n = 1 to n = 50; read-out: SMYD3 Biochem IC50. The method, boiled down: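 Tritium incorporation into GST-MEKK2 is counted by scintillation proximity after citric acid bead capture. Native human SMYD3 is preincubated with test compound for 30 min at room temperature at pH 8.0 (Tris-Cl, TCEP, BSG, Tween 20) before 3H-SAM and substrate are added; cold SAM at 100 uM final stops turnover.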

In test [2] the target is T1, SMYD3. Put plainly: SMYD3 cell assay (Trimethyl-MEKK2 In-Cell Western in 293T/17 cells). It counts as cell-based. Particulars: average of n = 1 to n = 50; read-out: SMYD3 Cell IC50. A digest of the protocol: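 In-Cell Western ratio of trimethyl-Lys260 MEKK2 to anti-flag signal; percent inhibition from DMSO and maximum-inhibition controls, IC50 by non-linear regression, triplicates.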

The term IC50 denotes the point on the concentration scale where inhibition reaches its midpoint.

T1 sequence (Q9H7B4 whole entry): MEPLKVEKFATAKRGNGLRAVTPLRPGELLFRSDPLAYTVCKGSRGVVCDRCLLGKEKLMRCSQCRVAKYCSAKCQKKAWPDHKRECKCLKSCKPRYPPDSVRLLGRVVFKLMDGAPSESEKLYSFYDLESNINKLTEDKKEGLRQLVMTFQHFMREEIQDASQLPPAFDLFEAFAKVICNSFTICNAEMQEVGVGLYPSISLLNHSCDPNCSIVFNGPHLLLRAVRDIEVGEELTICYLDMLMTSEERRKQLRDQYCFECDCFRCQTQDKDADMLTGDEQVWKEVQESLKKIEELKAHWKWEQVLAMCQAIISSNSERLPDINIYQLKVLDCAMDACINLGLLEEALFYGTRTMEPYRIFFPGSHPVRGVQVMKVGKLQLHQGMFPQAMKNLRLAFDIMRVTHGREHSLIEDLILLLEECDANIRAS

For `C[C@H]1CN(S(=O)(=O)CC2CCN(CCN3CCCCC3)CC2)CC[C@H]1NC(=O)c1cc(C2CC2)on1` [compound 693, 5-cyclopropyl-N-((3S,4R)-3-methyl-1-(((1-(2-(piperidin-1-yl)ethyl)piperidin-4-yl)methyl)sulfonyl)piperidin-4-yl)isoxazole-3-carboxamide], the IC50 in test [1] is 0.156 µM; in test [2], 4.04 µM.
For `C[C@H]1CN(S(=O)(=O)CCN)[C@@H](C)C[C@H]1NC(=O)c1cc(C2CC2)on1` [compound 694, N-((2S,4R,5S)-1-((2-aminoethyl)sulfonyl)-2,5-dimethylpiperidin-4-yl)-5-cyclopropylisoxazole-3-carboxamide], the 50% inhibitory concentration (IC50) came to 0.157 µM in test [1] and 0.952 µM in test [2].
On to `C[C@H]1C[C@@H](NC(=O)c2cc(C3CC3)on2)CCN1S(=O)(=O)C(CCN)c1ccccc1` (stereo partly drawn) [compound 695, N-((2S,4S)-1-((3-amino-1-phenylpropyl)sulfonyl)-2-methylpiperidin-4-yl)-5-cyclopropylisoxazole-3-carboxamide], for which the concentration for half-maximal inhibition (IC50) in test [1] stood at 0.169 µM; in test [2], 1.83 µM.
Consider `C[C@H]1CN(S(=O)(=O)NC2CCN(Cc3ccccc3)CC2)CC[C@H]1NC(=O)c1cc(C2CC2)on1` [compound 696, N-((3S,4R)-1-(N-(1-benzylpiperidin-4-yl)sulfamoyl)-3-methylpiperidin-4-yl)-5-cyclopropylisoxazole-3-carboxamide], for which the half-inhibitory concentration (IC50) in test [1] was determined as 0.17 µM; in test [2] it was 1.55 µM.
As to `C[C@H]1C[C@@H](NC(=O)c2cc(C3CC3)on2)CCN1S(=O)(=O)CCCNc1ccccc1` [compound 697, 5-cyclopropyl-N-((2S,4S)-2-methyl-1-((3-(phenylamino)propyl)sulfonyl)piperidin-4-yl)isoxazole-3-carboxamide], the IC50 in test [1] stood at 0.178 µM; in test [2], 1.56 µM.
The matching figures for `C[C@H]1CN(S(=O)(=O)CC2CCN(CCC(F)(F)F)CC2)CC[C@H]1NC(=O)c1cc(C2CC2)on1` [compound 698, 5-cyclopropyl-N-((3S,4R)-3-methyl-1-(((1-(3,3,3-trifluoropropyl)piperidin-4-yl)methyl)sulfonyl)piperidin-4-yl)isoxazole-3-carboxamide]: 0.179 µM and 0.746 µM.
The matching figures for `CC1CN(S(=O)(=O)N2CC[C@H](NC(=O)c3cc(C4CC4)on3)C[C@@H]2C)CCN1C` (stereo partly drawn) [compound 699, 5-cyclopropyl-N-((2S,4S)-1-((3,4-dimethylpiperazin-1-yl)sulfonyl)-2-methylpiperidin-4-yl)isoxazole-3-carboxamide]: 0.193 µM and 0.658 µM.
The matching figures for `O=C(N[C@H]1CCN(S(=O)(=O)CC2CCCNC2)[C@@H](Cc2ccccc2)C1)c1cc(C2CC2)on1` (stereo partly drawn) [compound 700, N-((2S,4S)-2-benzyl-1-((piperidin-3-ylmethyl)sulfonyl)piperidin-4-yl)-5-cyclopropylisoxazole-3-carboxamide]: 0.194 µM and 2.11 µM.
Regarding `CC1CN(S(=O)(=O)N2CC[C@H](NC(=O)c3cc(C4CC4)on3)C[C@@H]2C)CC(C)N1` (stereo partly drawn) [compound 701, 5-cyclopropyl-N-((2S,4S)-1-((3,5-dimethylpiperazin-1-yl)sulfonyl)-2-methylpiperidin-4-yl)isoxazole-3-carboxamide], the half-inhibitory concentration (IC50) came out at 0.21 µM in test [1] and 1.84 µM in test [2].
The matching figures for `CC1CN(S(=O)(=O)N2[C@@H]3CC[C@H]2C[C@@H](NC(=O)c2cc(C4CC4)on2)C3)CC(C)N1C` (stereo partly drawn) [compound 702, 5-cyclopropyl-N-((1R,3r,5S)-8-((3,4,5-trimethylpiperazin-1-yl)sulfonyl)-8-azabicyclo[3.2.1]octan-3-yl)isoxazole-3-carboxamide]: 0.215 µM and 1.24 µM.
The matching figures for `CN(CCCS(=O)(=O)N1[C@@H]2CC[C@H]1C[C@@H](NC(=O)c1cc(C3CC3)on1)C2)CCN1CCOCC1` [compound 703, 5-cyclopropyl-N-((1R,3r,5S)-8-((3-(methyl(2-morpholinoethyl)amino)propyl)sulfonyl)-8-azabicyclo[3.2.1]octan-3-yl)isoxazole-3-carboxamide]: 0.217 µM and 0.804 µM.
The matching figures for `O=C(N[C@H]1C[C@H]2CC[C@@H](C1)N2S(=O)(=O)CCNCCc1ccccc1)c1cc(C2CC2)on1` [compound 705, 5-cyclopropyl-N-((1R,3r,5S)-8-((2-(phenethylamino)ethyl)sulfonyl)-8-azabicyclo[3.2.1]octan-3-yl)isoxazole-3-carboxamide]: 0.225 µM and 1.51 µM.
With `C[C@H]1C[C@@H](NC(=O)c2cc(C3CC3)on2)CCN1S(=O)(=O)c1ccncc1` [compound 706, 5-cyclopropyl-N-((2S,4S)-2-methyl-1-(pyridin-4-ylsulfonyl)piperidin-4-yl)isoxazole-3-carboxamide], the IC50 in test [1] was 0.238 µM; in test [2] it was 1.21 µM.
On to `O=C(N[C@H]1CCN(S(=O)(=O)CC2CCN(CCCO)CC2)[C@@H](Cc2ccccc2)C1)c1cc(C2CC2)on1` [compound 707, N-((2S,4S)-2-benzyl-1-(((1-(3-hydroxypropyl)piperidin-4-yl)methyl)sulfonyl)piperidin-4-yl)-5-cyclopropylisoxazole-3-carboxamide], for which the figures for the half-maximal inhibitory concentration (IC50) in test [1] and in test [2] were 0.247 µM and 2.54 µM, respectively.
The matching figures for `C[C@H]1C[C@@H](NC(=O)c2cc(C3CC3)on2)CCN1S(=O)(=O)c1cccc(N)n1` [compound 708, N-((2S,4S)-1-((6-aminopyridin-2-yl)sulfonyl)-2-methylpiperidin-4-yl)-5-cyclopropylisoxazole-3-carboxamide]: 0.252 µM and 1.66 µM.
Consider `CN1CCC(N(C)S(=O)(=O)N2[C@@H]3CCC[C@@H]2CC(NC(=O)c2cc(C4CC4)on2)C3)CC1` (stereo partly drawn) [compound 709, 5-cyclopropyl-N-((1R,5R)-9-(N-methyl-N-(1-methylpiperidin-4-yl)sulfamoyl)-9-azabicyclo[3.3.1]nonan-3-yl)isoxazole-3-carboxamide], for which the IC50 in test [1] came out at 0.258 µM; in test [2] it was 1.92 µM.
On to `C[C@H]1CN(S(=O)(=O)N2CCN(C)CC2)CC[C@H]1NC(=O)c1cc(C2CC2)on1` [compound 710, 5-cyclopropyl-N-((3S,4R)-3-methyl-1-((4-methylpiperazin-1-yl)sulfonyl)piperidin-4-yl)isoxazole-3-carboxamide], for which the 50% inhibitory concentration (IC50) in test [1] worked out at 0.261 µM; in test [2] it was 0.831 µM.
The matching figures for `CC[C@@H]1CN(S(=O)(=O)N2CC[C@H](NC(=O)c3cc(C4CC4)on3)C[C@@H]2C)CCN1C` [compound 711, 5-cyclopropyl-N-((2S,4S)-1-(((R)-3-ethyl-4-methylpiperazin-1-yl)sulfonyl)-2-methylpiperidin-4-yl)isoxazole-3-carboxamide]: 0.273 µM and 1.15 µM.
As for `C[C@@H]1CN(S(=O)(=O)N2CC[C@H](NC(=O)c3cc(C4CC4)on3)C[C@@H]2C)[C@@H](C)CN1C` [compound 712, 5-cyclopropyl-N-((2S,4S)-2-methyl-1-(((2S,5R)-2,4,5-trimethylpiperazin-1-yl)sulfonyl)piperidin-4-yl)isoxazole-3-carboxamide], the IC50 is 0.275 µM in test [1] and 1.1 µM in test [2].
As to `CCC1CN(S(=O)(=O)N2[C@@H]3CC[C@H]2C[C@@H](NC(=O)c2cc(C4CC4)on2)C3)CCN1C` (stereo partly drawn) [compound 713, 5-cyclopropyl-N-((1R,3r,5S)-8-((3-ethyl-4-methylpiperazin-1-yl)sulfonyl)-8-azabicyclo[3.2.1]octan-3-yl)isoxazole-3-carboxamide], the half-inhibitory concentration (IC50) in test [1] is 0.293 µM; in test [2] it was 1.18 µM.
`CN(C1CCNCC1)S(=O)(=O)N1CC[C@@H](NC(=O)c2cc(C3CC3)on2)C[C@@H]1Cc1ccccc1` [compound 714, N-((2S,4R)-2-benzyl-1-(N-methyl-N-(piperidin-4-yl)sulfamoyl)piperidin-4-yl)-5-cyclopropylisoxazole-3-carboxamide]: the results for the IC50 in test [1] and in test [2] were 0.295 µM and 3.15 µM, respectively.
Turning to `CN(C1CCNCC1)S(=O)(=O)N1CC[C@H](NC(=O)c2cc(C3CC3)on2)C[C@H]1Cc1ccccc1` [compound 715, N-((2R,4S)-2-benzyl-1-(N-methyl-N-(piperidin-4-yl)sulfamoyl)piperidin-4-yl)-5-cyclopropylisoxazole-3-carboxamide], the IC50 in test [1] was 0.297 µM; in test [2] it was 3.04 µM.
For the compound `C[C@@H]1C[C@H](NC(=O)c2cc(C3CC3)on2)CCN1S(=O)(=O)CCC(N)Cc1ccccc1` (stereo partly drawn) [compound 716, N-((2R,4R)-1-((3-amino-4-phenylbutyl)sulfonyl)-2-methylpiperidin-4-yl)-5-cyclopropylisoxazole-3-carboxamide], the results for the concentration for half-maximal inhibition (IC50) in test [1] and in test [2] were 0.303 µM and 3.53 µM, respectively.
`O=C(N[C@H]1CCN(S(=O)(=O)C2CCNC2)[C@@H](Cc2ccccc2)C1)c1cc(C2CC2)on1` (stereo partly drawn) [compound 717, N-((2S,4S)-2-benzyl-1-(pyrrolidin-3-ylsulfonyl)piperidin-4-yl)-5-cyclopropylisoxazole-3-carboxamide]: the 50% inhibitory concentration (IC50) was found to be 0.306 µM in test [1] and 2.02 µM in test [2].
The matching figures for `CN1CCC(N(C)S(=O)(=O)N2[C@@H]3CCC[C@H]2C[C@H](NC(=O)c2cc(C4CC4)on2)C3)CC1` [compound 718, 5-cyclopropyl-N-((1R,3s,5S)-9-(N-methyl-N-(1-methylpiperidin-4-yl)sulfamoyl)-9-azabicyclo[3.3.1]nonan-3-yl)isoxazole-3-carboxamide]: 0.309 µM and 1.62 µM.
